PMC9609996, “SAR Study and Molecular Mechanism Investigation of Novel Naphthoquinone-furan-2-cyanoacryloyl Hybrids with Antitumor Activity” (Pharmaceutics, 2022)

Experiments:
[1] = test system: L02 cells; experiment: CCK-8 assay on normal cells, L02; assay type: cell-based; conditions: L02 human normal hepatocytes, 48 h, mean ± SD
Procedure: Human cervical cancer HeLa, human prostate cancer PC3, human colonic carcinoma HCT116, human lung carcinoma A549, human breast cancer MDA-MB-231, mouse melanoma B16, human ovarian cancer SKOV3, human hepatoma Hep3B, and human liver L02 cells were purchased from the Cell Bank of Shanghai Institute of Biochemistry and Cell Biology, Chinese Academy of Sciences (Shanghai, China). The HeLa, A549, B16, PC3, MDA-MB-231, HCT116, and L02 cells were cultured in Dulbecco’s modified Eagle medium (DMEM, Gibco Inc.; Gaithersburg, MD, USA). All cultures were supplied with 10% fetal bovine serum (FBS; YHSM, Beijing, China), 100 IU/mL of penicillin, and 100 μg/mL of streptomycin, and cells were incubated at 37 °C in an atmosphere of 5% CO2.
A CCK-8 kit (MCE, USA) was used to perform a CCK-8 assay. Cells were plated and grown in the 96-well plates for the indicated period (48 h) in the incubator, followed by an incubation with the CCK-8 solutions for 1–4 h. Subsequently, the absorbance (450 nm) was measured by a microplate reader. The median inhibitory concentration (IC50) was determined from the dose–response curve. Experiments were performed in a triplicate.

[2] = biological target: recombinant STAT3 (Homo sapiens, UniProt P40763); experiment: Biolayer interferometry (BLI) assay; conditions: 5c 7.81 to 250 μM, 25 °C, read-out: binding affinity (KD)
recombinant STAT3, sequence (P40763 whole entry): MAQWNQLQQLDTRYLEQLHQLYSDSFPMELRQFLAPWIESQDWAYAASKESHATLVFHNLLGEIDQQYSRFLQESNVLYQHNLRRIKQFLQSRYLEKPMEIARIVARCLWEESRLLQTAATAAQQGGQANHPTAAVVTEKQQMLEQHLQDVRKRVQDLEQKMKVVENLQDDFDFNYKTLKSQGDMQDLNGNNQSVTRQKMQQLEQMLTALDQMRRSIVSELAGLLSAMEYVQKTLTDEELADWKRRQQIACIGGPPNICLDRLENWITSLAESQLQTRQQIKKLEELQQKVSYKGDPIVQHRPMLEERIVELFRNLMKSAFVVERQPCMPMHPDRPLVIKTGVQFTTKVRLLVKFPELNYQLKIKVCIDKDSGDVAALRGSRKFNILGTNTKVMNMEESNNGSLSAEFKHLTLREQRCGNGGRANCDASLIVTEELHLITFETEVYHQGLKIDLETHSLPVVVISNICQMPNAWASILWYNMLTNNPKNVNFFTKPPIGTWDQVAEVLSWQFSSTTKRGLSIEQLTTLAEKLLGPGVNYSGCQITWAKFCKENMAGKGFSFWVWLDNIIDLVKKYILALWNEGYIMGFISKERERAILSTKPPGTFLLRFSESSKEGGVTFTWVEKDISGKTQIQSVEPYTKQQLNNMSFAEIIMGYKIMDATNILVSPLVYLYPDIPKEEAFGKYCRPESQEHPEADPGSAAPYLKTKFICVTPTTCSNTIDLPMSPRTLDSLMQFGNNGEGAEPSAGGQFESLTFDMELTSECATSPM
Procedure: To confirm that compound 5c is a direct STAT3 inhibitor, a BLI (Biolayer interferometry) analysis was performed. Briefly, recombinant STAT3 with a His-tag was immobilized on SSA biosensors, and the dissociation constants were determined by measuring the binding to serial dilutions of 5c at concentrations ranging from 7.81 to 250 μM (Figure 10A). The signal was collected, and the kinetic affinity was calculated by the software. The steady-state curve reaches saturation (Figure 10B).
Purified recombinant STAT3 proteins were biotinylated using the EZ-Link biotinylation reagent (Thermo Fisher Scientific). Briefly, the protein and biotinylation reagent were mixed with a 1:1 molar ratio in PBS at 4 °C. Low biotinylation reagent concentration was applied to avoid protein over-biotinylation. These reaction mixtures were incubated at room temperature for 30 min to allow for the completion of the reaction. Reaction mixture was then dialyzed using 10K MWCO dialysis cassettes (Thermo Fisher Scientific) to remove unreacted biotinylation reagent.
BLI experiments were performed using an OctetRED96 instrument from ForteBio. All assays were run at 25 °C with continuous 1000 RPM shaking. […] The resulting data were analyzed based on a 1:1 binding model from which the kon and koff values were obtained. After, the KD values were calculated.

[3] = test system: HeLa cells; experiment: Colony formation assay; assay type: cell-based, human; conditions: treated 24 h, cultured two weeks
Procedure: HeLa cells were cultured at 1 × 10^3 cells per well in a 6-well plate with a regular growth medium for 12 h. After the cells were fixed on the wall, they were treated with different concentrations of compound 5c or 0.1% DMSO for 24 h. Then, the cells were cultured in a fresh medium for two weeks until the colonies were visible. A crystal violet staining solution (Beyotime, Shanghai, China) was used to stain the colonies for 30 min, and the result was recorded by a smartphone. The colonies were defined as >50 cells/colony.

With `N#C/C(=C\c1ccc(C2=CC(=O)c3ccccc3C2=O)o1)C(=O)NCCN1CCOCC1` [Compound 5c, (E)-2-cyano-3-(5-(1,4-dioxo-1,4-dihydronaphthalen-2-yl)furan-2-yl)-N-(2-morpholinoethyl)acrylamide] the IC50 [1] was 51.7 ± 0.1 µM, the Kd [2] was 13 µM and the “colony forming ability of HeLa cells” value [3] was “significantly inhibited”.
